Series [1] in a line: Solubility of BAT in aqueous solution. The format is physicochemical. The following applies: within acidic aqueous solutions (bivalent positive charge). The text has this:
The thiophene oligomer having amino-methyl residue at the terminal, has a high solubility compared with other derivatives of the same type because of this amino-methyl residue. Solubility changes with the dissociation state of this amino-methyl residue. […] In aqueous solutions near a pH region suitable for the body (around 7.4), it has a feature of having both positively-charged monovalent BAT maintaining a high solubility, and non-charged BAT that agglutinates easily into a colloid state. Under this pH condition, by perfusing cells within a BAT-dispersed solution, this molecule can easily attach onto the cell surface. The hydrophilicity of BAT molecule is a novel feature that is not seen in either modified thiophene oligomers starting with α-terthienyl, or in other molecules designed as conductive high molecular monomers.

The subject of another series is nerve cell line PC12. Description: Measurement of membrane resistance and membrane potential following light exposure (patch clamp). It counts as cell-based. The following applies: for change in cell membrane resistance/membrane potential following light exposure: 363 nm argon ion laser. As to the method:
Since there is a need to monitor cellular level micro membrane damages, including the recovering process within seconds to a few minutes, the intermembrane potential of the cell membrane, or the ionic current passing through the cell membrane was measured using the patch clamp method, which is an electrophysiology experiment technique.
The photosensitizer BAT was dispersed in HEPES (25 mM,pH7.4) buffer.
Cells were incubated at room temperature within an electrophysiology experimental culture medium.
2H2O, 2.4 mM; MgSO4. 7H2O, 1.3 mM; glucose 10 mM, in which the pH was adjusted to […] by finally adding NaOH. To prevent any influence due to evaporation, the electrophysiology experiment culture medium was changed every 40 min at the latest by a pipette.
BAT was added to a final concentration of 49 μM. Exposed light quantity was in three stages, being 0.47 J/cm^2, 0.94 J/cm^2, and 1.57 J/cm^2.
The solution within the patch electrodes had the composition of KCl 132 mM, NaCl, 8 mM, MgCl2, 2 mM, HEPES 30 mM, Na2ATP 4 mM, GTP 0.3 mM, and EGTA 0.5 mM, in which the pH was adjusted to 7.3 by finally adding NaOH.
As the excitation power source, 50 mW, 363 nm argon ion laser standardly equipped within a confocal laser scanning microscope (CLSM) MRC-1000 UV (BIO-RAD laboratories) was used. 1/16th (¼^th to the direction of the X axis and Y axis, 117 μm×170 μm) of the full screen of the microscope is scanned with the above-described laser beams. Adjustments were done so that the whole image of the patched target cell came into this area. 50 mW laser beam is a 100% output. According to the scanning speed, the exposed duration was selected from 1/16, ¼, 1/32 sec. The light reduction by the lens was also utilized. When the zoom function was used, the light is scanned on a concentrated area smaller than the normal area, and therefore, the light quantity per unit area increases in proportion to the square of the zoom magnification. Since the excitation light has to pass through the plastic of the collagen-coated dish before reaching the cells, there is a necessity to consider light reduction.
Also, in the excitation light exposure, a TTL signal coupled with an electrophysiological recording is suitably transmitted to the excitation light source, to synchronize the exposure and electrical measurement.
At the start of the electrophysiological experiment, the cell membrane potential was maintained between −80 to −60 mV. The resistance of the patch electrode was 3˜4 MΩ, and the above described solution was filled into electrodes, and used.
As for the amplifier for cell membrane potential measurement, Axopatch 1-D (Axon Instruments) was used. The membrane resistance was calculated by the change in membrane potential when a 1 Hz rectangular hyperpolarizing current was passed through for 350 mili sec. […] The measured potential/current value was analyzed by Axoscope ver. 1.1 software (Axon Instruments).
Membrane resistance reflects membrane permeation inhibiting capacity, and membrane potential reflects the active ion transport capacity due to the functions of various intermembrane ion transportation systems and ion permeation inhibiting capacity.
A microinjector was connected to a micro glass pipette held by a micromanipulator, and BAT dispersed solution (BAT concentration was 2 mM, aqueous solvent) was filled into this micro glass pipette. The tip of this glass pipette was connected to a patch electrode and setup within 200 μm proximity of the cells in which the membrane potential/membrane resistance was to be measured. BAT dispersed solution was released by compressing the micro glass pipette to attach BAT onto the cell membrane of target cells.

Series [2] deals with PC12 cells. Description: Cell survival rate after injection treatment (LY maintaining rate). The format is cell-based. Here is the method: The survival rate of cells to which microinjection treatment by a physical shear force was given, and that for photosensitizing microinjection treated cells were compared.
LY was injected into cells by microinjection. In dead cells in which the cell membrane had collapsed, LY rapidly diffuses, and staining is lost (Cell, 14, 741-759 (1978)). Therefore, LY maintaining rate of injection treated cells was used as an indicator of cell survival rate, and the survival rate after 3 to 6 days following injection treatment was compared.

Series [3] relates to PC12 cells. The series can be described thus: Microinjection treatment using site-specific membrane disruption: success rate of Lucifer Yellow injection. Particulars: BAT 100 μM in injection solution, capillary approach speed 7 μm s^-1, n=30. The format is cell-based. Here is the method: To determine the success or failure of microinjection treatment, Lucifer Yellow CH(LY), a water-soluble fluorescent dye, was added to the injection solution. After injection treatment, if a yellow fluorescence of LY origin was observed within the cell by a fluorescent microscope, then, the injection treatment was judged to have been successful. The variation of the success rate of cell injection was evaluated by the presence or absence of the photosensitizer BAT within the injection solution, and the presence or absence of a BAT excitation light exposure.
Normally, to make microinjection successful, a glass capillary having an opening with a diameter of a few hundred nanometers should be contacted with cells at high speed, to instantly penetrate/perforate the cell membrane or the nucleus membrane physically. […] The micromanipulator was attached to a fluorescence microscope (OLYMPUS OPTICAL, IX70 fluorescence microscope spec). Light of a 100 W […], which is the epi-illumination fluorescence light source equipped in the microscope, was treated by transmitting through an ultraviolet ray excitation filter set (OLYMPUS OPTICAL, U-MWU mirror unit), and the resulting ultraviolet light was used as the excitation source of the photosensitizer. […]

Experimental findings from patent US6753171B2, “Site-specific cell perforation technique” (Center for Advanced Science and Technology Incubation, Ltd., priority 1998, dated 2004) are described below.

Take `NCc1ccc(-c2ccc(-c3ccc(CN)s3)s2)s1` [BAT, 5′5″-bis(aminomethyl)-2,2′:5′,2″-terthiophene]: the solubility entry in series [1] is reported as “dissolves easily”. The “change in cell membrane resistance/membrane potential following light exposure” value in the series on nerve cell line PC12 (BAT 49 μM, light quantity 0.47 J/cm^2 (A)) was “a big change was not seen”; in the series on nerve cell line PC12 (BAT 49 μM, light quantity 0.94 J/cm^2 (B)), “a decrease in cell membrane resistance/depolarization of the membrane potential occurred”; in the series with nerve cell line PC12 (BAT 49 μM, light quantity 1.57 J/cm^2 (C)), “both disappeared”. Moreover, the “time to disappearance of cell membrane resistance/membrane potential” value in the series on nerve cell line PC12 (BAT 49 μM, light quantity 1.57 J/cm^2 (C), after a few second lag period) was found to be 8 s. Also, the “cell membrane potential after laser exposure” value with nerve cell line PC12 (BAT 2 mM dispersed solution sprayed onto target cells by micro glass pipette (Example 4)) was “depolarization of the cell membrane potential was observed”. For the same compound, the “change in membrane resistance when only the axon of the cell was exposed to laser beams” value in the series with nerve cell line PC12 (only the axon exposed) is “a similar change in membrane resistance was observed”. In addition, the “cell survival rate (LY retention rate)” value turned out to be 30% with PC12 cells [2] (BAT+LY without UV, 3rd day following treatment) and 90% in the series with PC12 cells [2] (BAT+LY+UV photosensitizing injection, three to six days following injection treatment). The “success rate of the injection” value with PC12 cells [3] (2 min ultraviolet exposure) was found to be 80%; with PC12 cells [3] (no light exposure), 13%.
